Here are results for 25 molecules from US10047083B2, “Dihydropyrimidinoisoquinolinones and pharmaceutical compositions thereof for the treatment of inflammatory disorders” (GALAPAGOS NV, priority 2011, dated 2018).

The IC50 is the concentration needed to halve the response being measured. Low readings indicate inhibition by little substance, high ones a need for much substance.

This test deals with T1, GPR84 (Homo sapiens, UniProt Q9NQS5).
T1 construct: expressed in transfected cells; membranes used
T1 sequence (Q9NQS5 whole entry): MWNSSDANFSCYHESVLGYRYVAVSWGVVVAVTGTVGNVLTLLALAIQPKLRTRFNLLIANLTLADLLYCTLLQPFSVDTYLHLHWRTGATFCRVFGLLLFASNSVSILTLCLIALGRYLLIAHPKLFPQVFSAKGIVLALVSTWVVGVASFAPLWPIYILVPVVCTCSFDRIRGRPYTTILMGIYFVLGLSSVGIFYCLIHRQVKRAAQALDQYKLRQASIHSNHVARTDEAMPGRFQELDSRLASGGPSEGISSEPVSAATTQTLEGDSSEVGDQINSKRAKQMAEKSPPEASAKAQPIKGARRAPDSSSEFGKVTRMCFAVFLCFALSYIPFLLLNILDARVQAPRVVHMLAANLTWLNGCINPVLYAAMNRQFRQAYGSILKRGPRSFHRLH
Description: GTPγS binding assay (GPR84). The settings on record: membranes from stable cell line over expressing GPR84; 3,3′ di indolylmethane at EC80. The class given is biochemical. On the procedure: 1.1. Cell Based Assay: GTp-γS Binding Assay.
The following assay can be used for determination of GPR84 activation.
The assay is performed in a 96 well plate where the following reagents are added. […] In a last step, 30 μL of a mixture consisting of membranes-GTPγS-SpA beads is added [mixture consists of 20 μg/well membranes derived from stable cell line over expressing GPR84 (membranes are pre-incubated with 0.1 μM GDP for 15 min at 4° C.), 0.1 nM [^35S]GTPγS (Perkin Elmer, NEG030) and 0.5 mg/well PVT-WGA SpA beads (Perkin Elmer, RPNQ0001)]. All components are diluted in assay buffer containing 20 mM HEPES pH 7.4; 5 mM MgCl2; 250 mM NaCl; 0.05% BSA; 75 ug/mL saponin. Reactions are incubated for 90 min at room temperature followed by centrifugation at 2000 rpm during 15 min. Plates are read on a Topcount reader (Perkin Elmer) immediately after centrifugation (readout time, 1 min/well).
Background: GTPγS resists hydrolysis and so accumulates on activated G proteins.
The molecule `O=c1nc(OCC2COCCO2)cc2n1CCc1cc(C#CC3CCCC3)ccc1-2` (stereo not shown) [Compound 81, 9-cyclopentylethynyl-2-([1,4]dioxan-2-ylmethoxy)-6,7-dihydro-pyrimido[6,1-a]isoquinolin-4-one] came in with a 50% inhibitory concentration (IC50) of 0.01 to 100 nM.

For `O=c1nc(OCC2COCCO2)cc2n1CCc1cc(C#CC3CCCCC3)ccc1-2` (stereo not shown) [Compound 82, 9-cyclohexylethynyl-2-([1,4]dioxan-2-ylmethoxy)-6,7-dihydro-pyrimido[6,1-a]isoquinolin-4-one], the IC50 is 0.01 to 100 nM.

`CCCCC#Cc1ccc2c(c1)CCn1c-2cc(OCC2COCCO2)nc1=O` (stereo not shown) [Compound 84, 2-([1,4]dioxan-2-ylmethoxy)-9-hex-1-ynyl-6,7-dihydro-pyrimido[6,1-a]isoquinolin-4-one] yielded an IC50 of 0.01 to 100 nM.

In the case of `CC(O)C#Cc1ccc2c(c1)CCn1c-2cc(OCC2COCCO2)nc1=O` (stereo not shown) [Compound 87, 2-([1,4]dioxan-2-ylmethoxy)-9-(3-hydroxy-but-1-ynyl)-6,7-dihydro-pyrimido[6,1-a]isoquinolin-4-one], the IC50 was in the range of 101 to 500 nM.

For `CCC(O)(C#Cc1ccc2c(c1)CCn1c-2cc(OCC2COCCO2)nc1=O)CC` (stereo not shown) [Compound 91, 2-([1,4]dioxan-2-ylmethoxy)-9-(3-ethyl-3-hydroxy-pent-1-ynyl)-6,7-dihydro-pyrimido[6,1-a]isoquinolin-4-one], the IC50 was in the range of 101 to 500 nM.

As for `O=c1nc(OCC2COCCO2)cc2n1CCc1cc(C#CCNCc3ccccc3)ccc1-2` (stereo not shown) [Compound 93, 9-(3-benzylamino-prop-1-ynyl)-2-([1,4]dioxan-2-ylmethoxy)-6,7-dihydro-pyrimido[6,1-a]isoquinolin-4-one], the 50% inhibitory concentration (IC50) fell in the range of 0.01 to 100 nM.

Consider `CCn1cc(-c2ccc3c(c2)CCn2c-3cc(OCC3COCCO3)nc2=O)cn1` (stereo not shown) [Compound 95, 2-([1,4]dioxan-2-ylmethoxy)-9-(1-ethyl-1H-pyrazol-4-yl)-6,7-dihydro-pyrimido[6,1-a]isoquinolin-4-one], for which the IC50 is 501 to 1000 nM.

In the case of `CC(C)CCn1cc(-c2ccc3c(c2)CCn2c-3cc(OCC3COCCO3)nc2=O)cn1` (stereo not shown) [Compound 96, 2-([1,4]dioxan-2-ylmethoxy)-9-[1-(3-methyl-butyl)-1H-pyrazol-4-yl]-6,7-dihydro-pyrimido[6,1-a]isoquinolin-4-one], the IC50 is 101 to 500 nM.

With `Cc1ccc(-c2ccc3c(c2)CCn2c-3cc(OCC3COCCO3)nc2=O)o1` (stereo not shown) [Compound 97, 2-([1,4]dioxan-2-ylmethoxy)-9-(5-methyl-furan-2-yl)-6,7-dihydro-pyrimido[6,1-a]isoquinolin-4-one], the concentration for half-maximal inhibition (IC50) lay in the range of 101 to 500 nM.

`CCCn1cc(-c2ccc3c(c2)CCn2c-3cc(OCC3COCCO3)nc2=O)cn1` (stereo not shown) [Compound 101, 2-([1,4]dioxan-2-ylmethoxy)-9-(1-propyl-1H-pyrazol-4-yl)-6,7-dihydro-pyrimido[6,1-a]isoquinolin-4-one] returned an IC50 of 101 to 500 nM.

In the case of `O=c1nc(OC[C@H]2COCCO2)cc2n1CCc1cc(OCc3noc(C4CC4)n3)ccc1-2` [Compound 104, 9-(5-cyclopropyl-[1,2,4]oxadiazol-3-ylmethoxy)-2-((R)-1-[1,4]dioxan-2-ylmethoxy)-6,7-dihydro-pyrimido[6,1-a]isoquinolin-4-one], the IC50 is 0.01 to 100 nM.

In turn, `C#Cc1ccc2c(c1)CCn1c-2cc(OCC2COCCO2)nc1=O` (stereo not shown) [Compound 105, 2-([1,4]dioxan-2-ylmethoxy)-9-ethynyl-6,7-dihydro-pyrimido[6,1-a]isoquinolin-4-one] returned an IC50 of 101 to 500 nM.

`O=c1nc(OCC2COCCO2)cc2n1CCc1cc(C#Cc3ncccn3)ccc1-2` (stereo not shown) [Compound 106, 2-([1,4]dioxan-2-ylmethoxy)-9-pyrimidin-2-ylethynyl-6,7-dihydro-pyrimido[6,1-a]isoquinolin-4-one] came in with a concentration for half-maximal inhibition (IC50) of 501 to 1000 nM.

For the molecule `O=c1nc(OCC2COCCO2)cc2n1CCc1cc(C#CC(O)c3cccnc3)ccc1-2` (stereo not shown) [Compound 108, 2-([1,4]dioxan-2-ylmethoxy)-9-(3-hydroxy-3-pyridin-3-yl-prop-1-ynyl)-6,7-dihydro-pyrimido[6,1-a]isoquinolin-4-one], the 50% inhibitory concentration (IC50) was 0.01 to 100 nM.

As to `COC(C#Cc1ccc2c(c1)CCn1c-2cc(OCC2COCCO2)nc1=O)C(C)C` (stereo not shown) [Compound 110, 2-([1,4]dioxan-2-ylmethoxy)-9-(3-methoxy-4-methyl-pent-1-ynyl)-6,7-dihydro-pyrimido[6,1-a]isoquinolin-4-one], the IC50 was 101 to 500 nM.

Molecule `O=c1nc(OCC2COCCO2)cc2n1CCc1cc(C#CCn3ccnc3)ccc1-2` (stereo not shown) [Compound 113, 2-([1,4]Dioxan-2-ylmethoxy)-9-(3-imidazol-1-yl-prop-1-ynyl)-6,7-dihydro-pyrimido[6,1-a]isoquinolin-4-one] came in with a half-maximal inhibitory concentration (IC50) of 101 to 500 nM.

For the molecule `C=CCOc1ccc2c(c1)CCn1c-2cc(OC[C@H]2COCCO2)nc1=O` [Compound 117, 9-allyloxy-2-((R)-1-[1,4]dioxan-2-ylmethoxy)-6,7-dihydro-pyrimido[6,1-a]isoquinolin-4-one], the IC50 lay within 101 to 500 nM.

`C=CCOc1ccc2c(c1)CCn1c-2cc(OC[C@@H]2COCCO2)nc1=O` [Compound 118, 9-allyloxy-2-((S)-1-[1,4]dioxan-2-ylmethoxy)-6,7-dihydro-pyrimido[6,1-a]isoquinolin-4-one] yielded an IC50 of 101 to 500 nM.

`O=c1nc(OC[C@H]2COCCO2)cc2n1CCc1cc(COC3CCOCC3)ccc1-2` [Compound 119, 2-((R)-1-[1,4]dioxan-2-ylmethoxy)-9-(tetrahydro-pyran-4-yloxymethyl)-6,7-dihydro-pyrimido[6,1-a]isoquinolin-4-one] had an IC50 of 101 to 500 nM.

As for `O=c1nc(OCC2COCCO2)cc2n1CCc1cc(C#CCNCc3cccnc3)ccc1-2` (stereo not shown) [Compound 120, 2-([1,4]dioxan-2-ylmethoxy)-9-{3-[(pyridin-3-ylmethyl)-amino]-prop-1-ynyl}-6,7-dihydro-pyrimido[6,1-a]isoquinolin-4-one], the IC50 lay in the range of 101 to 500 nM.

In turn, `O=c1nc(OC[C@@H]2COCCO2)cc2n1CCc1cc(COC3COC3)ccc1-2` [Compound 124, 2-((S)-1-[1,4]dioxan-2-ylmethoxy)-9-(oxetan-3-yloxymethyl)-6,7-dihydro-pyrimido[6,1-a]isoquinolin-4-one] came in with an IC50 of 101 to 500 nM.

For `CC1(COCc2ccc3c(c2)CCn2c-3cc(OC[C@@H]3COCCO3)nc2=O)COC1` [Compound 125, 2-((S)-1-[1,4]dioxan-2-ylmethoxy)-9-(3-methyl-oxetan-3-ylmethoxymethyl)-6,7-dihydro-pyrimido[6,1-a]isoquinolin-4-one], the IC50 was 501 to 1000 nM.

On to `CC(C)C(O)CCc1ccc2c(c1)CCn1c-2cc(OC[C@@H]2COCCO2)nc1=O` (stereo partly drawn) [Compound 127, 2-((S)-1-[1,4]dioxan-2-ylmethoxy)-9-(3-hydroxy-4-methyl-pentyl)-6,7-dihydro-pyrimido[6,1-a]isoquinolin-4-one], for which the IC50 was in the range of 0.01 to 100 nM.

`CCCCC(CC)CNc1ccc2c(c1)CCn1c-2cc(OC[C@@H]2COCCO2)nc1=O` (stereo partly drawn) [Compound 128, 2-((S)-1-[1,4]dioxan-2-ylmethoxy)-9-(2-ethyl-hexylamino)-6,7-dihydro-pyrimido[6,1-a]isoquinolin-4-one]: the IC50 fell in the range of 101 to 500 nM.

In turn, `COCCOc1ccc2c(c1)CCn1c-2cc(OC[C@@H]2COCCO2)nc1=O` [Compound 129, 2-((S)-1-[1,4]dioxan-2-ylmethoxy)-9-(2-methoxy-ethoxy)-6,7-dihydro-pyrimido[6,1-a]isoquinolin-4-one] gave an IC50 of 101 to 500 nM.
